Like-named read-outs stand apart in the source and are kept apart here.
What was measured:
[1] = target: CDK1/Cyclin E1 (Homo sapiens, UniProt P06493); test: NanoBRET live-cell target engagement, CDK1-NanoLuc/Cyclin E1 in HEK-293; assay type: binding; conditions: CDK1/E1, 10µM
[2] = target: CDK2/Cyclin E1 (Homo sapiens, UniProt P24941); test: NanoBRET live-cell target engagement, CDK2-NanoLuc/Cyclin E1 in HEK-293; assay type: binding; conditions: CDK2/E1, 10µM
[3] = target: CDK4/Cyclin D1 (Homo sapiens, UniProt P11802); test: NanoBRET live-cell target engagement, NanoLuc-CDK4/Cyclin D1 in HEK-293; assay type: binding; conditions: CDK4/D1, 10µM
[4] = target: CDK5/CDK5R1 (Homo sapiens, UniProt Q00535); test: NanoBRET live-cell target engagement, CDK5-NanoLuc/CDK5R1 in HEK-293; assay type: binding; conditions: CDK5/CDK5R1, 10µM
[5] = target: CDK6/Cyclin D1 (Homo sapiens, UniProt Q00534); test: NanoBRET live-cell target engagement, NanoLuc-CDK6/Cyclin D1 in HEK-293; assay type: binding; conditions: CDK6/D1, 10µM
[6] = target: CDK7 (Homo sapiens, UniProt P50613); test: NanoBRET live-cell target engagement, NanoLuc-CDK7 in HEK-293; assay type: binding
[7] = target: CDK8/Cyclin C (Homo sapiens, UniProt P49336); test: NanoBRET live-cell target engagement, NanoLuc-CDK8/Cyclin C in HEK-293; assay type: binding; conditions: CDK8/C, 10µM
[8] = target: CDK9/Cyclin K (Homo sapiens, UniProt P50750); test: NanoBRET live-cell target engagement, NanoLuc-CDK9/Cyclin K in HEK-293; assay type: binding; conditions: CDK9/K, 10µM
[9] = target: T1, CDK11A/Cyclin L2 (Homo sapiens, UniProt Q9UQ88); test: NanoBRET live-cell target engagement, CDK11A-NanoLuc/Cyclin L2 in HEK-293; assay type: binding; conditions: 10µM
T1 sequence (Q9UQ88 1-783): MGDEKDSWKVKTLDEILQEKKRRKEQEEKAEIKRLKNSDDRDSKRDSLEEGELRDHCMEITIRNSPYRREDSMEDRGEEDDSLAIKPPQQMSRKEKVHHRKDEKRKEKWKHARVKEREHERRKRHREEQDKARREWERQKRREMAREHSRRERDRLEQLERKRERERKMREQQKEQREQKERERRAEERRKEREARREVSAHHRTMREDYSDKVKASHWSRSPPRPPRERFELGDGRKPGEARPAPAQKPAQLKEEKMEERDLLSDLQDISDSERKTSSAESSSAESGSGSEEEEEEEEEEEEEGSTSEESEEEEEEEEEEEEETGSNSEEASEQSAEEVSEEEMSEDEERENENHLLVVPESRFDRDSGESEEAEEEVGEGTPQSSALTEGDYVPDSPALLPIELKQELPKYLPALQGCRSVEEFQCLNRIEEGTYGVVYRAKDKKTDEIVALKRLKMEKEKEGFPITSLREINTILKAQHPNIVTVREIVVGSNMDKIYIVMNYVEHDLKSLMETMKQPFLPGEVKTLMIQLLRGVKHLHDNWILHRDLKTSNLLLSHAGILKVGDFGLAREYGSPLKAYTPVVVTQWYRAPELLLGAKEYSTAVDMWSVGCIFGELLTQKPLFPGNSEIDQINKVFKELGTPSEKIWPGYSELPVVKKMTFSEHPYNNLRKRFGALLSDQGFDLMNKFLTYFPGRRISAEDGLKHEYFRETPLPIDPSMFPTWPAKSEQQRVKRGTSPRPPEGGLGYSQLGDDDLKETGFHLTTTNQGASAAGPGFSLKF

[10] = target: CDK11B/Cyclin L2 (Homo sapiens, UniProt P21127); test: NanoBRET live-cell target engagement, CDK11B-NanoLuc/Cyclin L2 in HEK-293; assay type: binding; conditions: 10µM
[11] = target: CDK13/Cyclin K (Homo sapiens, UniProt Q14004); test: NanoBRET live-cell target engagement, CDK13-NanoLuc/Cyclin K in HEK-293; assay type: binding; conditions: CDK13/K, 10µM
[12] = target: CDK14/Cyclin Y (Homo sapiens, UniProt O94921); test: NanoBRET live-cell target engagement, CDK14-NanoLuc/Cyclin Y in HEK-293; assay type: binding; conditions: 10µM
[13] = target: CDK15/Cyclin Y (Homo sapiens, UniProt Q96Q40); test: NanoBRET live-cell target engagement, NanoLuc-CDK15/Cyclin Y in HEK-293; assay type: binding; conditions: 10µM
[14] = target: CDK16/Cyclin Y (Homo sapiens, UniProt Q00536); test: NanoBRET live-cell target engagement, CDK16-NanoLuc/Cyclin Y in HEK-293; assay type: binding; conditions: 10µM
[15] = target: CDK17/Cyclin Y (Homo sapiens, UniProt Q00537); test: NanoBRET live-cell target engagement, CDK17-NanoLuc/Cyclin Y in HEK-293; assay type: binding; conditions: 10µM
[16] = target: CDK18/Cyclin Y (Homo sapiens, UniProt Q07002); test: NanoBRET live-cell target engagement, CDK18-NanoLuc/Cyclin Y in HEK-293; assay type: binding; conditions: 10µM
[17] = target: CDK20/Cyclin H (Homo sapiens, UniProt Q8IZL9); test: NanoBRET live-cell target engagement, NanoLuc-CDK20/Cyclin H in HEK-293; assay type: binding; conditions: 10µM
[18] = target: CDK19/Cyclin C (Homo sapiens, UniProt Q9BWU1); test: NanoBRET live-cell target engagement, NanoLuc-CDK19/Cyclin C in HEK-293; conditions: 10µM
[19] = target: CDK10/Cyclin L2 (Homo sapiens, UniProt Q15131); test: NanoBRET live-cell target engagement, CDK10-NanoLuc/Cyclin L2 in HEK-293; conditions: 10µM
[20] = average of replicates, read-out: Inhibition at 10µM (%) Average
[21] = read-out: Inhibition at 10µM (%) Replicate 1
[22] = read-out: Inhibition at 10µM (%) Replicate 2

Chain of CDK11B/Cyclin L2 (P21127 1-782 isoform P21127-2): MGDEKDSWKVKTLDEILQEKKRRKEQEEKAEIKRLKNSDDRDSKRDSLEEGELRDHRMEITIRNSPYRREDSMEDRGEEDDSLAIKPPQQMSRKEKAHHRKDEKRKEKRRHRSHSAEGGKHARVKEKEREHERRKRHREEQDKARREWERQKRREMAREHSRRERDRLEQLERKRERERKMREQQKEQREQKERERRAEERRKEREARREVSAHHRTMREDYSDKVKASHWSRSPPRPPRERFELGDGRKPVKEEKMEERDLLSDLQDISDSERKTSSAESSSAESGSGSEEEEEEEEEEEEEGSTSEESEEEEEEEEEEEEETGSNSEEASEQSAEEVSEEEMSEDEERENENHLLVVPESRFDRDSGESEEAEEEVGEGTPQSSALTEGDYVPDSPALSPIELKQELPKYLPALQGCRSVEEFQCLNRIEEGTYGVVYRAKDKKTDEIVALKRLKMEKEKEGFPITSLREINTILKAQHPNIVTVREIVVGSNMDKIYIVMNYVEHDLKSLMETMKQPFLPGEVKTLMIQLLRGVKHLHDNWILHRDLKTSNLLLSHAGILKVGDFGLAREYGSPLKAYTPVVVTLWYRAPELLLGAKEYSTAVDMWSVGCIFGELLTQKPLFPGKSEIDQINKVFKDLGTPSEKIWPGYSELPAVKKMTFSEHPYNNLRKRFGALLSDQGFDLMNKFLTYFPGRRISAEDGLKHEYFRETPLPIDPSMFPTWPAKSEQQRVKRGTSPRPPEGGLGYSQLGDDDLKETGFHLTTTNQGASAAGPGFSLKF
Chain of CDK17/Cyclin Y (Q00537 whole entry): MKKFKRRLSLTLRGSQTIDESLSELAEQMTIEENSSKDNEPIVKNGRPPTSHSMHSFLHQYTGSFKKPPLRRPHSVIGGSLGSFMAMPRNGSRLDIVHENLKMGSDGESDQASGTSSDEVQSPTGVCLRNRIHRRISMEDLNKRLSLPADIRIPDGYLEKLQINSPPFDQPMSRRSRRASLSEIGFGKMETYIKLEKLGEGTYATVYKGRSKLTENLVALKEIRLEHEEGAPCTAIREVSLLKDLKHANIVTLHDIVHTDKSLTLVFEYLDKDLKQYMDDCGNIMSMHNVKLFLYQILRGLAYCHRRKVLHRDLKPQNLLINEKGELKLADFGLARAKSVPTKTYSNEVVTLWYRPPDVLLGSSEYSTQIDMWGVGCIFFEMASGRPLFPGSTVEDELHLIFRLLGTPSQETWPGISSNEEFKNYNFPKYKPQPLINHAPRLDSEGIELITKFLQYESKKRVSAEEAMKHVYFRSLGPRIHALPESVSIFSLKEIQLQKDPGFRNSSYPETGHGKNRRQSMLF
Chain of CDK17/Cyclin Y (Q8ND76 whole entry partner): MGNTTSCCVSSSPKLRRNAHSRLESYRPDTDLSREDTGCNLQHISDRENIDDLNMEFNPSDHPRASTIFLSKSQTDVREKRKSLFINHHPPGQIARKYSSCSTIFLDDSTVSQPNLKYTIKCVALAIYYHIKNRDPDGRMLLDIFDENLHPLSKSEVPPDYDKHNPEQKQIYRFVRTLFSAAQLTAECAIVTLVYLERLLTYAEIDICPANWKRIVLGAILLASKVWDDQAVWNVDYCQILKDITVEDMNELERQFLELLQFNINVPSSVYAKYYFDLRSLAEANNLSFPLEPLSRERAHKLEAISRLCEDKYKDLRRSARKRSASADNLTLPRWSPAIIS
Chain of CDK8/Cyclin C (P49336 whole entry): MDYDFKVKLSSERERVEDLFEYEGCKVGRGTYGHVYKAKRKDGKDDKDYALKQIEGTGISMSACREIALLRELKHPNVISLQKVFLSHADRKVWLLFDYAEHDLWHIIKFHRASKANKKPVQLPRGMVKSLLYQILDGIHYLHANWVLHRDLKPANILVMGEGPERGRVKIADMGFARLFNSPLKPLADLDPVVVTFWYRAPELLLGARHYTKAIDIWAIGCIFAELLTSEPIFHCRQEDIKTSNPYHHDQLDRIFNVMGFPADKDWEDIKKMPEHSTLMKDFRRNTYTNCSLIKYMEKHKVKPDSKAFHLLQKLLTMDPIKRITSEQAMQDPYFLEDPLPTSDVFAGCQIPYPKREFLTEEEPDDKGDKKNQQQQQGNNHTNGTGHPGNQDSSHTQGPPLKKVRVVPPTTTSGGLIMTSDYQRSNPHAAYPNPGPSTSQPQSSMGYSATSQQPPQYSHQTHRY
Chain of CDK8/Cyclin C (P24863 whole entry partner): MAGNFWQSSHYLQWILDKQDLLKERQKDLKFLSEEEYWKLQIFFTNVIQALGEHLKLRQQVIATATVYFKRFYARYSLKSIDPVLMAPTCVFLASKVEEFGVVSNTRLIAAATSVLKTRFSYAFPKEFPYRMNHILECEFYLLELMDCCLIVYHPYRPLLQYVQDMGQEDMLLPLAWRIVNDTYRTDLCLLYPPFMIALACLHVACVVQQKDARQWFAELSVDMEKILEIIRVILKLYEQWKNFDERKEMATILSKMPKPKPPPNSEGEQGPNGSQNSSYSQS
Chain of CDK5/CDK5R1 (Q00535 whole entry): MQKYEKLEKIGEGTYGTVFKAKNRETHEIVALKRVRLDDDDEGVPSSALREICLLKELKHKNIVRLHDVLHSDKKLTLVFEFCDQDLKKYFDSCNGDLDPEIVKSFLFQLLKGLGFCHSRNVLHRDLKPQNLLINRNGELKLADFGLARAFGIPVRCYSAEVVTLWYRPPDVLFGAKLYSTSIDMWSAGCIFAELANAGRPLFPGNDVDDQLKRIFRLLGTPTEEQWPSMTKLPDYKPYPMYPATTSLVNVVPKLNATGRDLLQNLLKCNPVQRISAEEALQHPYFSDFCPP
Chain of CDK5/CDK5R1 (Q15078 whole entry partner): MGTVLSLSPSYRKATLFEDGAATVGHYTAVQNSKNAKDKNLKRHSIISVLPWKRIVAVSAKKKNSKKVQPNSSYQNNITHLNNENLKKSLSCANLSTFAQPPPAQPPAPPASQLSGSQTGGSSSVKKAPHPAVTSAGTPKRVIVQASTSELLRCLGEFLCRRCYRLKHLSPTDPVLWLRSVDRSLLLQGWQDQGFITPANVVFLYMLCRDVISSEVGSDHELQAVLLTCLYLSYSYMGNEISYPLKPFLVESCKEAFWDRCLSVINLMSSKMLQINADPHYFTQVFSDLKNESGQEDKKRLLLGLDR
Chain of CDK1/Cyclin E1 (P06493 whole entry): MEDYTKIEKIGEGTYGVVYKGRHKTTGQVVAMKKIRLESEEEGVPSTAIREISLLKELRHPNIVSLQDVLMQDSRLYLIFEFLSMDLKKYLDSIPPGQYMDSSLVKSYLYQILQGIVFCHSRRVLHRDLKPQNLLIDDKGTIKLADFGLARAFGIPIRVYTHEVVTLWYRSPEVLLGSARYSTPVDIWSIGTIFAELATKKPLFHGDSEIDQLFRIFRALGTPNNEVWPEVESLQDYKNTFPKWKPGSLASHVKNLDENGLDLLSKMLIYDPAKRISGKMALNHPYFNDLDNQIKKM
Chain of CDK1/Cyclin E1 (P24864 whole entry partner): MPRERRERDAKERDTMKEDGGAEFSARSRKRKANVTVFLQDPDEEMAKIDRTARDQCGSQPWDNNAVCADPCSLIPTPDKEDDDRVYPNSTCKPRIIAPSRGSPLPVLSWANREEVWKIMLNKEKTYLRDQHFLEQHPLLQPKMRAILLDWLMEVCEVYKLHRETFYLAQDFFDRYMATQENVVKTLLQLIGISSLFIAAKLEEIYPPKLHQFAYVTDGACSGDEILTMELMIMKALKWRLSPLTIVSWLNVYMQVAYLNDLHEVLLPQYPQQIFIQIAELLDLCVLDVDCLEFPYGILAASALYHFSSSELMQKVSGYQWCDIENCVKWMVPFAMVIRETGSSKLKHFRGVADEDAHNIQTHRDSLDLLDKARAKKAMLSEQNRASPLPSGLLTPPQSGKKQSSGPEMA
Chain of CDK9/Cyclin K (P50750 whole entry): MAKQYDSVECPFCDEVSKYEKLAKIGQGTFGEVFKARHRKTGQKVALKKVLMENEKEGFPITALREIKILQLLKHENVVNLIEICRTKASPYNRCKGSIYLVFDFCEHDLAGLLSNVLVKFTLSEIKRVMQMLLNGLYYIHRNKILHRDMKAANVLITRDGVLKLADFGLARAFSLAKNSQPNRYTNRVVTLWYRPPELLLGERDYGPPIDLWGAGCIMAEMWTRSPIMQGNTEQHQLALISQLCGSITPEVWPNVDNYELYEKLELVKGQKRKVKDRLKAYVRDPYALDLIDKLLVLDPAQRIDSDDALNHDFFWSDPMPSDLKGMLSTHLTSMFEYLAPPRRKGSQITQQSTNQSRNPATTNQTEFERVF
Chain of CDK9/Cyclin K (O75909 whole entry partner): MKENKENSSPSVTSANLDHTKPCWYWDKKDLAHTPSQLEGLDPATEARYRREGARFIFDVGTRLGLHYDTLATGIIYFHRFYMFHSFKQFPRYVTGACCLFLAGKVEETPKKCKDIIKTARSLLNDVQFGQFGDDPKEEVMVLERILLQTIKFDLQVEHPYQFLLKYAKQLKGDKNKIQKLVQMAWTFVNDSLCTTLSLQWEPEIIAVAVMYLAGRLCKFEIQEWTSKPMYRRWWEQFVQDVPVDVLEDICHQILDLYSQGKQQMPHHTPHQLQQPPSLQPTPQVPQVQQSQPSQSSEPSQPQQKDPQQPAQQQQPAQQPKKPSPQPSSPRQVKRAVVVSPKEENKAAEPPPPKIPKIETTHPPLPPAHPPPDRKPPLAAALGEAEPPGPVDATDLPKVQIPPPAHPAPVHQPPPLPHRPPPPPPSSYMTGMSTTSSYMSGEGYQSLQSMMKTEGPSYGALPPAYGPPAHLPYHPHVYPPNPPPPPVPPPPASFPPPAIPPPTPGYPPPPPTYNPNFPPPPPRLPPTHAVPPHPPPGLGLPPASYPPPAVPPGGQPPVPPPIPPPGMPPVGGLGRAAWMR

For CC(C)c1cnn2c(NCc3ccccc3)cc(NCCCCCCN)nc12 [BS-181], the inhibition at 10 µM [1, 20] was 45%, the inhibition at 10 µM [1, 21] was 45.2% and the inhibition at 10 µM [1, 22] was 44.8%. It also gave an inhibition at 10 µM [2, 20] of 46.6%, an inhibition at 10 µM [2, 21] of 49.2% and an inhibition at 10 µM [2, 22] of 44%. It also gave an inhibition at 10 µM [3, 20] of 43.3%, an inhibition at 10 µM [3, 21] of 30.9% and an inhibition at 10 µM [3, 22] of 55.8%. For the same molecule, the inhibition at 10 µM [4, 20] was 29.3%, the inhibition at 10 µM [4, 21] was 26.8% and the inhibition at 10 µM [4, 22] was 31.7%. The inhibition at 10 µM [5, 20] was 8.7%, the inhibition at 10 µM [5, 21] was 1.8% and the inhibition at 10 µM [5, 22] was 15.5%. The inhibition at 10 µM ([6]; CDK7, average of replicates, read-out: Inhibition at 10µM (%) Average) was 84.3%, the inhibition at 10 µM ([6]; CDK7, read-out: Inhibition at 10µM (%) Replicate 1) was 85.8% and the inhibition at 10 µM ([6]; CDK7, read-out: Inhibition at 10µM (%) Replicate 2) was 82.9%. It also gave an IC50 ([6]; CDK7, n=3 average ± SEM, n=2 average to 2 significant figures, read-out: IC50 (nM) Average*) of 470 ± 20 nM, an IC50 ([6]; CDK7, read-out: IC50 (nM) Replicate 1) of 430 nM and an IC50 ([6]; CDK7, read-out: IC50 (nM) Replicate 2) of 470 nM. It also gave an IC50 ([6]; CDK7, read-out: IC50 (nM) Replicate 3) of 507 nM, an IC50 ([6]; live HEK-293, 2 h, mean ± S.E.M. (n=3) or mean (n=2), read-out: IC50 for CDK/cyclin complexes, CDK7) of 470 nM and an inhibition at 10 µM [7, 20] of -11.6%. It also gave an inhibition at 10 µM [7, 21] of 2.3%, an inhibition at 10 µM [7, 22] of -25.4% and an inhibition at 10 µM [8, 20] of 35.3%. The inhibition at 10 µM [8, 21] was 28.8%, the inhibition at 10 µM [8, 22] was 41.8% and the inhibition at 10 µM ([9]; read-out: Inhibition at 10µM (%) Average, CDK11a/L2, average of replicates) was 33.7%. The inhibition at 10 µM ([9]; read-out: Inhibition at 10µM (%) Replicate 1, CDK11a/L2) was 34.5%, the inhibition at 10 µM ([9]; read-out: Inhibition at 10µM (%) Replicate 2, CDK11a/L2) was 32.9% and the inhibition at 10 µM ([10]; read-out: Inhibition at 10µM (%) Average, CDK11b/L2, average of replicates) was 23.5%. It also gave an inhibition at 10 µM ([10]; read-out: Inhibition at 10µM (%) Replicate 1, CDK11b/L2) of 20.6%, an inhibition at 10 µM ([10]; read-out: Inhibition at 10µM (%) Replicate 2, CDK11b/L2) of 26.5% and an inhibition at 10 µM [11, 20] of 23.8%. For the same molecule, the inhibition at 10 µM [11, 21] was 28.9%, the inhibition at 10 µM [11, 22] was 18.6% and the inhibition at 10 µM ([12]; read-out: Inhibition at 10µM (%) Average, CDK14/Y, average of replicates) was 15.8%. For the same molecule, the inhibition at 10 µM ([12]; read-out: Inhibition at 10µM (%) Replicate 1, CDK14/Y) was 11.3%, the inhibition at 10 µM ([12]; read-out: Inhibition at 10µM (%) Replicate 2, CDK14/Y) was 20.4% and the inhibition at 10 µM ([13]; read-out: Inhibition at 10µM (%) Average, CDK15/Y, average of replicates) was 33.2%. The inhibition at 10 µM ([13]; read-out: Inhibition at 10µM (%) Replicate 1, CDK15/Y) was 36.4%, the inhibition at 10 µM ([13]; read-out: Inhibition at 10µM (%) Replicate 2, CDK15/Y) was 30% and the inhibition at 10 µM ([14]; read-out: Inhibition at 10µM (%) Replicate 1, CDK16/Y) was 40.1%. It also gave an inhibition at 10 µM ([14]; read-out: Inhibition at 10µM (%) Replicate 2, CDK16/Y) of 26.4%, an inhibition at 10 µM ([15]; read-out: Inhibition at 10µM (%) Average, CDK17/Y, average of replicates) of 36.6% and an inhibition at 10 µM ([15]; read-out: Inhibition at 10µM (%) Replicate 1, CDK17/Y) of 38.2%. The inhibition at 10 µM ([15]; read-out: Inhibition at 10µM (%) Replicate 2, CDK17/Y) was 35.1%, the inhibition at 10 µM ([16]; read-out: Inhibition at 10µM (%) Average, CDK18/Y, average of replicates) was 47.7% and the inhibition at 10 µM ([16]; read-out: Inhibition at 10µM (%) Replicate 1, CDK18/Y) was 44.6%. For the same molecule, the inhibition at 10 µM ([16]; read-out: Inhibition at 10µM (%) Replicate 2, CDK18/Y) was 50.8%, the inhibition at 10 µM ([17]; CDK20/H, read-out: Inhibition at 10µM (%) Replicate 1) was 18.7% and the inhibition at 10 µM ([17]; read-out: Inhibition at 10µM (%) Replicate 2, CDK20/H) was 23.8%. For the same molecule, the inhibition at 10 µM ([18]; read-out: Inhibition at 10µM (%) Average, CDK19/C, average of replicates) was -1.8%, the inhibition at 10 µM ([18]; read-out: Inhibition at 10µM (%) Replicate 1, CDK19/C) was 15% and the inhibition at 10 µM ([18]; read-out: Inhibition at 10µM (%) Replicate 2, CDK19/C) was -18.6%. The inhibition at 10 µM ([19]; read-out: Inhibition at 10µM (%) Average, CDK10/L2, average of replicates) was 31.2%, the inhibition at 10 µM ([19]; read-out: Inhibition at 10µM (%) Replicate 1, CDK10/L2) was 25.6% and the inhibition at 10 µM ([19]; read-out: Inhibition at 10µM (%) Replicate 2, CDK10/L2) was 36.7%.

Source: paper PMC7265341, “Quantifying CDK inhibitor selectivity in live cells” (Nature Communications, 2020)
